Assay results taken from US10391134B2, “Anti-candida compositions and uses thereof” (PharmAlp SA, priority 2014, dated 2019).

Columns and labels:
Format in all cases: cell-based
[1] = test system: human vaginal epithelial cells; test: Neutral red screening of human cytotoxicity; settings: 24 h incubation; positive control and validation component
Method: Potential cytotoxicity of the extracts was assayed in the neutral red-screening test using human vaginal epithelial cells at 80% confluence corresponding to 2*10^5 cells per well of 96 wells as follows:
The extracts freshly extracted and stored once frozen were incubated for 24 h with the epithelial cells at different concentrations. At the end of the experiment the cells were washed 3× and incubated with Neutral Red (NR) medium (50 μg/ml) for 3 hours at 37° C., 5.0% CO2/air. A water solution at 0.5% ethanol was used as negative control (present in all samples). […] Cells were then washed and NR quantified. 100% staining intensity indicate intact lysosomal activity. 0% indicates little to no survival of human cells. Results were analysed according to the Hill function. IC50 or concentrations with highest impairment of cell survival were determined.
Desorb solution was prepared in a ratio of water-ethanol-acetic acid glacial (49:50:1; v:v) during 20 min with shaking. Wavelength used for spectrophotometric reading of NR optical density was 540 nm. Test Criteria were that the differences between VC mean; R2>0.85; Point >0%<100%. The results are presented on FIG. 4.

[2] = test system: Candida albicans cells (ATCC MYA-2876); test: Candida growth test (MIC, visual turbidity score)
Method: Candida albicans cells (ATCC MYA-2876) were incubated in SB (Sabouraud broth, Biolife 4020002) for 24 h at 30° C. and 150 rpm. The obtained culture was enumerated with a Neubauer Improved count chamber and concentration adjusted to 2.5·10^3 cfu/ml by dilution with sterile SB. Vaginal cells (End1/E6E7, ATCC CRL-2615) have been grown in Keratinocyte SFM (Gibco 17005-42) with 0.1 ng/ml human recombinant EGF (Gibco 10450-013), 0.05 mg/ml bovine pituitary extract (Gibco 13028-014) and additional calcium chloride 44.1 mg/L according to instructions by the provider, with media change every 2-3 days.
Minimal inhibitory concentration (MIC) of the plant extracts and antifungal substances was accomplished through tissue culture plates of 96 wells with flat bottom (Becton Dickinson). In each well 100 μl of the 2.5·10^3 cfu/ml Candida albicans culture obtained as described above in SB was mixed with 100 μl plant extract of different concentrations (0.025, 0.083, 0.25, 0.83, 2.5 and 8.3 mg/ml). Together with each dilution series a blank well was prepared with 100 μl culture and 100 μl of 5% ethanol-water solution. Fluconazole (Sigma, F8929) has been taken as positive control. Fluconazole solutions of different concentrations (4, 16, 32, 65, 650 μg/ml) have been freshly prepared prior testing. A well with only broth (100 μl) plus water (100 μl) and a well with broth plus plant extract (100 μl) were also prepared for color control. The plate was then incubated at 37° C. for 24 h and 48 h.
The evaluation of the growth inhibitory activities was conducted by visual observation of the turbidity of the wells and by attribution of a score from 0 (no growth) to 4 (maximal growth, similar to control well). MIC value of a substance is defined as the concentration which permits to reach a score of less than […]. […] In fact, the score of 2 represents an inhibition of Candida concentrations of about 80%. Results are presented on FIG. 2. […]

[3] = test system: Candida albicans adhesion on human vaginal epithelial cells (End1/E6E7); test: Inhibitory activity on Candida adhesion on human vaginal epithelial cells
Method: A tissue culture plate of 24 wells was prepared with vaginal epithelial cells. 0.5 ml of a culture of 10^5 cells/ml in keratinocyte SFM were put in each well of a 24-well plate and incubated for 2 days at 37° C. and 5% CO2. Each well was filled (after taking away the vaginal cells growth media) with 1 ml C. albicans culture of 5·10^6 cfu/ml mixed with test substance. As control, the solvent of each test substance was also tested. The plate was incubated at 37° C. for 6 h or 2 h ([…] for Example 2, 2 h for Example 4), permitting Candida cells to adhere to vaginal cells. After incubation the Candida culture was pipetted away from each well, which were then washed 3 times with 0.5 ml PBS. The epithelial cells-Candida layer was treated with a 0.05% trypsin solution (concentration of 1 ml/25 cm^2), which was then neutralized by addition of DMEM with 10% FCS. […] The obtained cell solution was diluted and analyzed with pour plate method (Manuel Suisse des denrées alimentaires, Chapitre 56, 2000, revision partielle 2004): 1 ml of the appropriate dilution was pipetted into an empty Petri dish and about 15-20 ml of SDA, cooled down to 45-50° C., poured over it.
After 24 h incubation at 37° C. the colonies were counted and the result (in cfu/ml) multiplied 1.5 times to obtain the number of adhered cell in each well. […]

## CCCCCCCCCCCCOS(=O)(=O)[O-].[Na+] [SDS]
[1]
  IC50 neutral red cytotoxicity: 8 to 25 µg/mL

## OC(Cn1cncn1)(Cn1cncn1)c1ccc(F)cc1F [fluconazole]
[2]; Example 1, 24 h and 48 h of treatment
  Stability of the growth inhibition effect, 24 h versus 48 h: maximal effect at 24 h and reduced effects at 48 h
[2]; after 48 h incubation, 2 separate runs
  Candida growth score (arbitrary unit, 0 no growth to 4 maximal growth): 2 to 3 arbitrary unit
[2]; all 5 concentrations applied (4, 16, 32, 65, 650 μg/ml)
  Inhibition of Candida growth: inhibited Candida growth to a similar degree
[3]; Example 1, fluconazole at 1 mg/ml, 6 hour incubation
  Adhesion of Candida, average value (100% = control): 100%

## Pepstatin A
[3]; Table 3, at 1 μM
  % inhibition (adhesion of Candida albicans to human epithelial cells): 5 (at 1 μM) %
